Results from ChEMBL document CHEMBL4138121, “Selective photocytotoxicity of anthrols on cancer stem-like cells: The effect of quinone methides or reactive oxygen species” (Eur J Med Chem, 2017).
Activity calls are given as the source filed them. No cut-off for these calls is given here.

Legend:
[1] = Drug uptake in plasma membranes of HMLE-shGFP cells at 5 uM irradiated at 420 nm for 5 mins measured after 2 to 3 hrs by confocal microscopic method; format: ADME, cell membranes, Plasma membrane; conditions: human
[2] = Cell cycle arrest in HMLE-shEcad cells at 1 to 5 uM after 24 to 48 hrs in absence of irradiation by propidium iodide staining-based flow cytometric method; conditions: human
[3] = test system: SUM-159-PT; experiment: Cell cycle arrest in human SUM159 cells in presence of irradiation; format: functional, cell-based
[4] = test system: HMLE; experiment: Cytotoxicity against HMLE-shEcad cells at 10 uM irradiated at 420 nm at 4 hrs post compound addition for 5 mins measured after 48 hrs by propidium iodide staining-based flow cytometric method; format: functional, cell-based; conditions: Homo sapiens
[5] = Drug uptake in intracellular membranes of HMLE-shGFP cells at 5 uM irradiated at 420 nm for 5 mins measured after 2 to 3 hrs by confocal microscopic method; format: ADME, cell membranes, Intracellular membrane; conditions: human
[6] = Dark toxicity against human H460 cells after 72 hrs by MTT assay; format: cell-based, NCI-H460
[7] = test system: MCF7; experiment: Photocytotoxicity against human MCF7 cells assessed as growth inhibition irradiated at 350 nm at 4, 24, 48 hrs post compound addition for 5 mins measured after 72 hrs by MTT assay; format: functional, cell-based; conditions: MCF7, light or radiation study
[8] = Drug uptake in nucleus of HMLE-shGFP cells at 5 uM irradiated at 420 nm for 5 mins measured after 2 to 3 hrs by confocal microscopic method; format: ADME, subcellular; conditions: human
[9] = Photocytotoxicity against HMLE-shEcad cells assessed as growth inhibition irradiated at 350 nm at 4, 24, 48 hrs post compound addition for 5 mins measured after 72 hrs by MTT assay; format: functional, cell-based; conditions: Homo sapiens, light or radiation study
[10] = Cell cycle arrest in HMLE-shGFP cells assessed as delay in G1 phase at 5 uM after 24 to 48 hrs in absence of irradiation by propidium iodide staining-based flow cytometric method; conditions: human
[11] = Dark toxicity against HMLE-shGFP cells after 72 hrs by MTT assay; format: cell-based; conditions: human
[12] = test system: MCF7; experiment: Photocytotoxicity against human MCF7 cells assessed as growth inhibition irradiated at 420 nm at 4, 24, 48 hrs post compound addition for 5 mins measured after 72 hrs by MTT assay; format: functional, cell-based; conditions: MCF7, light or radiation study
[13] = test system: HMLE; experiment: Anticlonogenic activity against HMLE-shEcad cells at 1 uM irradiated at 350 nm at 4 hrs post compound addition for 5 mins measured after 24 hrs by crystal violet staining-based assay; format: functional, cell-based; conditions: Homo sapiens
[14] = Drug uptake in cytoplasm of HMLE-shGFP cells at 5 uM irradiated at 420 nm for 5 mins measured after 2 to 3 hrs by confocal microscopic method; format: ADME, subcellular; conditions: human
[15] = test system: MCF7; experiment: Cell cycle arrest in human MCF7 cells in presence of irradiation; format: functional, cell-based
[16] = Induction of cell damage in HMLE-shGFP cells assessed as degradation of internal structure at 5 uM irradiated at 420 nm for 5 mins measured after 2 to 3 hrs by confocal microscopic method; format: cell-based; conditions: human
[17] = Drug uptake in nucleus of HMLE-shEcad cells at 5 uM in absence of irradiation measured after 2 to 3 hrs by confocal microscopic method; format: ADME, subcellular; conditions: human
[18] = Photocytotoxicity against HMLE-shGFP cells assessed as growth inhibition irradiated at 350 nm at 4, 24, 48 hrs post compound addition for 5 mins measured after 72 hrs by MTT assay; format: cell-based; conditions: Homo sapiens, light or radiation study
[19] = test system: HCT-116; experiment: Photocytotoxicity against human HCT116 cells assessed as growth inhibition irradiated at 420 nm at 4, 24, 48 hrs post compound addition for 5 mins measured after 72 hrs by MTT assay; format: functional, cell-based; conditions: HCT-116, light or radiation study
[20] = Drug uptake in cytoplasm of HMLE-shEcad cells at 5 uM in absence of irradiation measured after 2 to 3 hrs by confocal microscopic method; format: ADME, subcellular; conditions: human
[21] = Dark toxicity against human MCF7 cells after 72 hrs by MTT assay; format: cell-based
[22] = test system: HCT-116; experiment: Photocytotoxicity against human HCT116 cells assessed as growth inhibition irradiated at 350 nm at 4, 24, 48 hrs post compound addition for 5 mins measured after 72 hrs by MTT assay; format: functional, cell-based; conditions: HCT-116, light or radiation study
[23] = test system: HMLE; experiment: Cell cycle arrest in HMLE-shEcad cells assessed as delay in S/G2 phase at 5 uM irradiated at 420 nm at 4 hrs post compound addition for 5 mins measured after 24 to 48 hrs by propidium iodide staining-based flow cytometric method; format: functional; conditions: Homo sapiens
[24] = Induction of cell damage in HMLE-shGFP cells assessed as cell swelling at 5 uM irradiated at 420 nm for 5 mins measured after 2 to 3 hrs by confocal microscopic method; format: cell-based; conditions: human
[25] = Anticlonogenic activity against HMLE-shGFP cells at 1 uM irradiated at 350 nm at 4 hrs post compound addition for 5 mins measured after 24 hrs by crystal violet staining-based assay; format: cell-based; conditions: human
[26] = Photocytotoxicity against HMLE-shEcad cells assessed as growth inhibition irradiated at 420 nm at 4, 24, 48 hrs post compound addition for 5 mins measured after 72 hrs by MTT assay; format: functional, cell-based; conditions: Homo sapiens, light or radiation study
[27] = Induction of cell damage in HMLE-shGFP cells assessed as uncoupling of cytoskeleton from plasma membrane at 5 uM irradiated at 420 nm for 5 mins measured after 2 to 3 hrs by confocal microscopic method; format: cell-based; conditions: human
[28] = test system: NCI-H460; experiment: Photocytotoxicity against human H460 cells assessed as growth inhibition irradiated at 420 nm at 4, 24, 48 hrs post compound addition for 5 mins measured after 72 hrs by MTT assay; format: functional, cell-based; conditions: NCI-H460, light or radiation study
[29] = Cytotoxicity against HMLE-shGFP cells at 10 uM irradiated at 420 nm at 4 hrs post compound addition for 5 mins measured after 48 hrs by propidium iodide staining-based flow cytometric method; format: cell-based; conditions: human
[30] = Photocytotoxicity against HMLE-shGFP cells assessed as growth inhibition irradiated at 420 nm at 4, 24, 48 hrs post compound addition for 5 mins measured after 72 hrs by MTT assay; format: cell-based; conditions: Homo sapiens, light or radiation study
[31] = Dark toxicity against human SUM159 cells after 72 hrs by MTT assay; format: cell-based, SUM-159-PT
[32] = test system: NCI-H460; experiment: Photocytotoxicity against human H460 cells assessed as growth inhibition irradiated at 350 nm at 4, 24, 48 hrs post compound addition for 5 mins measured after 72 hrs by MTT assay; format: functional, cell-based; conditions: NCI-H460, light or radiation study
[33] = Dark toxicity against human HCT116 cells after 72 hrs by MTT assay; format: cell-based, HCT-116
[34] = Dark toxicity against HMLE-shEcad cells after 72 hrs by MTT assay; format: cell-based; conditions: human
[35] = Cell cycle arrest in HMLE-shGFP cells assessed as delay in S/G2 phase at 5 uM irradiated at 420 nm at 4 hrs post compound addition for 5 mins measured after 24 to 48 hrs by propidium iodide staining-based flow cytometric method; conditions: human
[36] = test system: SUM-159-PT; experiment: Photocytotoxicity against human SUM159 cells assessed as growth inhibition irradiated at 420 nm at 4, 24, 48 hrs post compound addition for 5 mins measured after 72 hrs by MTT assay; format: functional, cell-based; conditions: light or radiation study

SMILES: Oc1cc2cc3ccccc3cc2cc1C(O)(c1ccccc1)c1ccccc1
- Drug uptake [1]: Active
- Activity [2]: Non-Toxic
- Activity [3]: inactive
- Activity [4]: Active
- Drug uptake [5]: Active
- IC50 at 72 h [6]: 19000 nM
- IC50 [7]: 4000 nM
- Drug uptake [8]: Not Active
- IC50 [9]: 2000 nM
- Activity [10]: Toxic
- IC50 at 72 h [11]: 6000 nM
- IC50 [12]: 2000 nM
- Activity [13]: Active
- Drug uptake [14]: Active
- Activity [15]: inactive
- Activity [16]: Toxic
- Drug uptake [17]: Not Active
- IC50 [18]: 1000 nM
- IC50 [19]: 2000 nM
- Drug uptake [20]: Active
- IC50 at 72 h [21]: 20000 nM
- IC50 [22]: 2000 nM
- Activity [23]: Active
- Activity [24]: Toxic
- Activity [25]: Toxic
- IC50 [26]: 2000 nM
- Activity [27]: Toxic
- IC50 [28]: 2000 nM
- Activity [29]: Toxic
- IC50 [30]: 2000 nM
- IC50 at 72 h [31]: 4000 nM
- IC50 [32]: 3000 nM
- IC50 at 72 h [33]: 21000 nM
- IC50 at 72 h [34]: 2000 nM
- Activity [35]: Toxic
- IC50 [36]: 1000 nM
